Results: ChEMBL document CHEMBL4130359, “Indazole-based ligands for estrogen-related receptor α as potential anti-diabetic agents” (Eur J Med Chem, 2017)

Assays:
[1] = target: T1, Steroid hormone receptor ERR1 (Homo sapiens, UniProt P11474); test: Antagonist activity at His6-tagged ERRalpha LBD (unknown origin) assessed as inhibition of GST-tagged SRC-2 co-activator peptide recruitment after 18 hrs by TR-FRET assay
T1 sequence (P11474 whole entry): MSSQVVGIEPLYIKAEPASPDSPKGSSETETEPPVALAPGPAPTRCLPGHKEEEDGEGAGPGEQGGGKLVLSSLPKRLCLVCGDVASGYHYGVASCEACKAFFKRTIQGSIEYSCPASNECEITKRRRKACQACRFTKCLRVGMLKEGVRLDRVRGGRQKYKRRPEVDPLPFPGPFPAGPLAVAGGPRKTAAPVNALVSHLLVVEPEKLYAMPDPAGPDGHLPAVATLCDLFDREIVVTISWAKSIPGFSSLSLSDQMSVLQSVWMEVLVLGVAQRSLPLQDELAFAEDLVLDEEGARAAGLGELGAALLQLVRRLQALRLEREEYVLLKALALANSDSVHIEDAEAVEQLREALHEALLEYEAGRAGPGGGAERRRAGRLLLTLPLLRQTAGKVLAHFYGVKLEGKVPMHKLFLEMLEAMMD

[2] = tested on: Rattus norvegicus; test: Decrease in fed plasma insulin level in Zucker rat sub-chronic fa/fa prediabetic model assessed as change in plasma insulin level at 10 mg/kg, po qd for 4 days measured on day 5 relative to control; format: functional; parameters: scale not given: the % may be the effect or the level left
[3] = tested on: Rattus norvegicus; test: Decrease in fed plasma triglyceride level in Zucker rat sub-chronic fa/fa prediabetic model assessed as change in plasma triglyceride level at 10 mg/kg, po qd for 4 days measured on day 5 relative to control; format: functional; parameters: scale not given: the % may be the effect or the level left
[4] = target: Voltage-gated inwardly rectifying potassium channel KCNH2 (Homo sapiens, UniProt Q12809); test: Displacement of [3H]astemizole from human ERG; settings: for inhibition (INH): human
Sequence of Voltage-gated inwardly rectifying potassium channel KCNH2 (Q12809 whole entry): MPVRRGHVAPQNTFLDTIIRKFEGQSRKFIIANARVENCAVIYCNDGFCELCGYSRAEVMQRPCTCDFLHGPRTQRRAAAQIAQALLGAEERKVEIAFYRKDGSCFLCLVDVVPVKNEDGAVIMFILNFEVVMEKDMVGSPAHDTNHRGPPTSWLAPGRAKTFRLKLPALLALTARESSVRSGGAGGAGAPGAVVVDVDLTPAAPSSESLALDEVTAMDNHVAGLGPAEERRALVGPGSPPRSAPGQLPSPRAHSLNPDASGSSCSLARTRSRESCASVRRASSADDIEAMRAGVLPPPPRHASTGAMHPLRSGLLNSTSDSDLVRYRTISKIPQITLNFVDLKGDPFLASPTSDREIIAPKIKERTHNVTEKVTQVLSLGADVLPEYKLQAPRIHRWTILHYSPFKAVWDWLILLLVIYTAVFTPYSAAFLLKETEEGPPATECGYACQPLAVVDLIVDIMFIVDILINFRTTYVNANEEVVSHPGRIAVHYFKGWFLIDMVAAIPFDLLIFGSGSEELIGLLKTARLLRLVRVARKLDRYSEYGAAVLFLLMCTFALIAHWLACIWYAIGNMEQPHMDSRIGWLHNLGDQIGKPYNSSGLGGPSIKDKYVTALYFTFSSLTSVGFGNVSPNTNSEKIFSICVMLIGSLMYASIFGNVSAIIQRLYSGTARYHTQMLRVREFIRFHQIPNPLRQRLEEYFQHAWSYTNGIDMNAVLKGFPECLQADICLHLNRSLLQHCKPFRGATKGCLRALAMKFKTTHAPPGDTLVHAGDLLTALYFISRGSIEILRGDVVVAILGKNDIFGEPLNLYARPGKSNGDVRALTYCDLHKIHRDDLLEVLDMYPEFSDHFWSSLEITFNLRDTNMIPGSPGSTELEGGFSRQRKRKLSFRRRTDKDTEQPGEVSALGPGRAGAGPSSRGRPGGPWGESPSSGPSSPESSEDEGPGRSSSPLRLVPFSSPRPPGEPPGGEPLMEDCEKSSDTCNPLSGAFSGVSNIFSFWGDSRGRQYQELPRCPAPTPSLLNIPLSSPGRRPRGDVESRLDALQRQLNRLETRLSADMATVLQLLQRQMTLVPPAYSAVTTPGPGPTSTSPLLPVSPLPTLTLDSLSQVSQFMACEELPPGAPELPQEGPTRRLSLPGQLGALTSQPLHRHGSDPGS

[5] = Drug uptake in Sprague-Dawley rat plasma at 10 mg/kg, po via gavage by LC-MS analysis; format: ADME, organism-based; settings: in vivo
[6] = tested on: Rattus norvegicus; test: Decrease in fed plasma glucose level in Zucker rat sub-chronic fa/fa prediabetic model at 10 mg/kg, po qd for 4 days measured on day 5 relative to control; format: functional; parameters: scale not given: the % may be the effect or the level left
[7] = tested on: Rattus norvegicus; test: Antidiabetic activity in Zucker rat sub-chronic fa/fa prediabetic model assessed as decrease in plasma glucose AUC (0 to 120 mins) at 10 mg/kg, po qd during 10 days study by OGTT relative to control; format: functional; parameters: scale not given: the % may be the effect or the level left
[8] = tested on: Rattus norvegicus; test: Toxicity in Zucker rat sub-chronic fa/fa prediabetic model assessed as increase in body weight at 10 mg/kg, po qd during 10 days study; format: organism-based; settings: in vivo, 240 h
[9] = tested on: Rattus norvegicus; test: Toxicity in Zucker rat sub-chronic fa/fa prediabetic model assessed as increase in food consumption at 10 mg/kg, po qd during 10 days study; format: organism-based; settings: in vivo, 240 h
[10] = tested on: Rattus norvegicus; test: Toxicity in Zucker rat sub-chronic fa/fa prediabetic model assessed as effect on liver enzymes at 10 mg/kg, po qd during 10 days study; format: organism-based; settings: in vivo, 240 h
[11] = target: Cytochrome P450 2C19 (Homo sapiens, UniProt P33261); test: Inhibition of CYP2C19 (unknown origin) in microsomes; format: ADME
Sequence of Cytochrome P450 2C19 (P33261 whole entry): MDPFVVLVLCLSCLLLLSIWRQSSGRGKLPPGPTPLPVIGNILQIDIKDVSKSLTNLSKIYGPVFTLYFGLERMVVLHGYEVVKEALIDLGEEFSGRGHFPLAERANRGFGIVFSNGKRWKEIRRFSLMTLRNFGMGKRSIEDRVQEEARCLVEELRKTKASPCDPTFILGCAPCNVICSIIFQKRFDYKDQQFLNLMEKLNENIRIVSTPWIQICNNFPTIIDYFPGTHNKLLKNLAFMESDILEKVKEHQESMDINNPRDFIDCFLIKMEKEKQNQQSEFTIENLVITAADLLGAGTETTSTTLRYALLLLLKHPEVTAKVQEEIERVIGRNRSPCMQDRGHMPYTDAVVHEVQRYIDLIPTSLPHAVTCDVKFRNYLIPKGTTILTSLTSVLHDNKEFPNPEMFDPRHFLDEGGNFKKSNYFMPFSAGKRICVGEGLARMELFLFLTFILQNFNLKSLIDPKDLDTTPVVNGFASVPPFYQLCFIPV

[12] = target: Cytochrome P450 3A4 (Homo sapiens, UniProt P08684); test: Inhibition of CYP3A4 (unknown origin) in microsomes; format: ADME
Sequence of Cytochrome P450 3A4 (P08684 whole entry): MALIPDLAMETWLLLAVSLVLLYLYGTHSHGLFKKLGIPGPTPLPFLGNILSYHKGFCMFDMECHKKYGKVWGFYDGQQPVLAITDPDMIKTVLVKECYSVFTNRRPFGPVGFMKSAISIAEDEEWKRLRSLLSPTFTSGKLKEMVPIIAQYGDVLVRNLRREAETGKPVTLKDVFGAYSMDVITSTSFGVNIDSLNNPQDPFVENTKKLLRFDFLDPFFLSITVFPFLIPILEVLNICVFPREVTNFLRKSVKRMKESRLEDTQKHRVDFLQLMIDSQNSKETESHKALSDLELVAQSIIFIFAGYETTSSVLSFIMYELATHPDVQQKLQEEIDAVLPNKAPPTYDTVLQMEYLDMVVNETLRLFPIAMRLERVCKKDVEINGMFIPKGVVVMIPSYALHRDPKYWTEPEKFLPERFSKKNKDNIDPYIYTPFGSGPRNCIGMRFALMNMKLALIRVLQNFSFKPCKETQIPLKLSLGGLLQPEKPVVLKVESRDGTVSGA

[13] = target: Cytochrome P450 2C9 (Homo sapiens, UniProt P11712); test: Inhibition of CYP2C9 (unknown origin) in microsomes; format: ADME
Sequence of Cytochrome P450 2C9 (P11712 whole entry, the tested form may be a part): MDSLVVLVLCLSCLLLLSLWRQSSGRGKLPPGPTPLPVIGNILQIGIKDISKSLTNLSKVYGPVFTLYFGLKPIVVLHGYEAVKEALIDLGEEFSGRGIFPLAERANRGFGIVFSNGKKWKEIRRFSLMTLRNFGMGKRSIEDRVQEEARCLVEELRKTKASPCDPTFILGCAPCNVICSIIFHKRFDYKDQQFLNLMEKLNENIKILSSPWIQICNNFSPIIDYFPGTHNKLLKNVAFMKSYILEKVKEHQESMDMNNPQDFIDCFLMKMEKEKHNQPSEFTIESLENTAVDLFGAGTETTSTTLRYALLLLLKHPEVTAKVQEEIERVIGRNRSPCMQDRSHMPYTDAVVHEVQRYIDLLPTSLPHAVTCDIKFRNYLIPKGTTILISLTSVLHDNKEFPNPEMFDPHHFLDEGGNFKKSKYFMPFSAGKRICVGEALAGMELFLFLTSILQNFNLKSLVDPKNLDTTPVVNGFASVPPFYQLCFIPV

[14] = target: Steroid hormone receptor ERR2 (Homo sapiens, UniProt O95718); test: Antagonist activity at recombinant GST-tagged human ERRbeta LBD assessed as inhibition of fluorescein-labeled coactivator peptide recruitment preincubated with enzyme followed by coactivator addition by LanthaScreen TR-FRET assay
Sequence of Steroid hormone receptor ERR2 (O95718 whole entry, the tested form may be a part): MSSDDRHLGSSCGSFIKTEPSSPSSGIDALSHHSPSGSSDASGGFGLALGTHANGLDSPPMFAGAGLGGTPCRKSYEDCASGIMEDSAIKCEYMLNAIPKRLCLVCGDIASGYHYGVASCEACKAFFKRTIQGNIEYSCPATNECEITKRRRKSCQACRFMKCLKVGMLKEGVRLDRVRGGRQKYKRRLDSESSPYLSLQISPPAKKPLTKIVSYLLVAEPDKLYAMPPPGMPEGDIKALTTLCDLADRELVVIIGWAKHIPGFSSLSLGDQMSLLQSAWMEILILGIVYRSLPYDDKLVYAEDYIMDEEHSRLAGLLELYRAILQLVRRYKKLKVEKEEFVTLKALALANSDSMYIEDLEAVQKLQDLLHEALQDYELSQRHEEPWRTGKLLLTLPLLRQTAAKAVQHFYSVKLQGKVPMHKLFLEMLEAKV

[15] = tested on: Rattus norvegicus; test: Decrease in fed plasma free fatty acid level in Zucker rat sub-chronic fa/fa prediabetic model at 10 mg/kg, po qd for 4 days measured on day 5 relative to control; format: functional; parameters: scale not given: the % may be the effect or the level left
[16] = tested on: Rattus norvegicus; test: Toxicity in Zucker rat sub-chronic fa/fa prediabetic model assessed as increase in body weight at 10 mg/kg, po qd for 4 days; format: organism-based; settings: in vivo, 96 h

Compound: N[C@@H](CO)CN1C(=O)S/C(=C\c2ccc3c(cnn3Cc3ccc(Cl)cc3C(F)(F)F)c2)C1=O
- IC50 [1]: 23 nM
- Activity [2]: -33%
- Activity [3]: -45%
- inhibition (INH) [4]: Active
- Cp [5]: < 100 ng/mL

Compound: COc1ccc(Cn2ncc3cc(/C=C4\SC(=O)N(CCN5CCCC5)C4=O)ccc32)c(C(F)(F)F)c1
- IC50 [1]: 46 nM

Compound: COc1ccc(Cn2ncc3cc(/C=C4\SC(=O)N(CC(=O)O)C4=O)ccc32)c(C(F)(F)F)c1
- IC50 [1]: 9 nM
- Activity [2]: -9%
- Activity [3]: 21%

Compound: CN(C)S(=O)(=O)NC(=O)CN1C(=O)S/C(=C\c2ccc3c(cnn3Cc3ccc(Cl)cc3C(F)(F)F)c2)C1=O
- IC50 [1]: 23 nM
- Activity [2]: -29%
- Activity [3]: -46%

Compound: O=C(O)CN1C(=O)S/C(=C\c2ccc3c(cnn3Cc3ccc(Cl)cc3C(F)(F)F)c2)C1=O
- IC50 [1]: 9 nM
- Activity [2]: -50%
- Activity [3]: -14%

Compound: O=C1S/C(=C\c2ccc3c(cnn3Cc3ccc(Cl)cc3C(F)(F)F)c2)C(=O)N1[C@@H]1CCNC[C@H]1O (relative stereo)
- IC50 [1]: 25 nM
- inhibition (INH) [4]: Active

Compound: O=C1S/C(=C\c2ccc3c(cnn3Cc3ccc(Cl)cc3C(F)(F)F)c2)C(=O)N1CCN1CCOCC1
- IC50 [1]: 43 nM

Compound: O=C(CN1C(=O)S/C(=C\c2ccc3c(cnn3Cc3ccc(Cl)cc3C(F)(F)F)c2)C1=O)NS(=O)(=O)N1CCCC1
- IC50 [1]: 25 nM
- Activity [2]: -47%
- Activity [3]: 1%
- Drug uptake [5]: Active

Compound: O=C1S/C(=C\c2ccc3c(cnn3Cc3ccc(C(F)(F)F)cc3C(F)(F)F)c2)C(=O)N1CCN1CCCC1
- IC50 [1]: 580 nM

Compound: CN1CC[C@H](N2C(=O)S/C(=C\c3ccc4c(cnn4Cc4ccc(Cl)cc4C(F)(F)F)c3)C2=O)[C@@H](F)C1
- IC50 [1]: 22 nM
- Activity [2]: -52%
- Activity [3]: -51%
- Activity [6]: -27%
- Activity [7]: -37%
- Activity [8]: Toxic
- Activity [9]: Toxic
- Activity [10]: Toxic

Compound: O=C(O)C1CCC(N2C(=O)S/C(=C\c3ccc4c(cnn4Cc4ccc(Cl)cc4C(F)(F)F)c3)C2=O)CC1 (configuration not stated)
- IC50 [1]: 12 nM
- Activity [2]: -30%
- Activity [3]: -19%

Compound: C[C@H](N)CN1C(=O)S/C(=C\c2ccc3c(cnn3Cc3ccc(Cl)cc3C(F)(F)F)c2)C1=O
- IC50 [1]: 24 nM
- Activity [2]: -60%
- Activity [3]: -55%
- Cp [5]: < 100 ng/mL

Compound: Cc1nn(Cc2ccc(Cl)cc2C(F)(F)F)c2ccc(/C=C3\SC(=O)N(CC(=O)O)C3=O)cc12
- IC50 [1]: 28 nM
- Activity [2]: -18%
- Activity [3]: -4%

Compound: O=C1S/C(=C\c2ccc3c(cnn3Cc3ccc(Cl)cc3C(F)(F)F)c2)C(=O)N1Cc1nnn[nH]1
- IC50 [1]: 13 nM
- Activity [2]: -44%
- Activity [3]: -51%

Compound: CN1CC[C@@H](N2C(=O)S/C(=C\c3ccc4c(cnn4Cc4ccc(Cl)cc4C(F)(F)F)c3)C2=O)[C@H](O)C1 (relative stereo)
- IC50 [1]: 23 nM
- inhibition (INH) [4]: Active

Compound: Cc1nn(Cc2ccc(Cl)cc2C(F)(F)F)c2ccc(/C=C3\SC(=O)N(CC(=O)NS(=O)(=O)N4CCCC4)C3=O)cc12
- IC50 [1]: 54 nM
- Activity [2]: -10%
- Activity [3]: -23%
- Drug uptake [5]: Active

Compound: O=C1S/C(=C\c2ccc3c(cnn3Cc3ccc(Cl)cc3C(F)(F)F)c2)C(=O)N1C1CCN(CCO)CC1
- IC50 [1]: 15 nM
- Activity [2]: -77%
- Activity [3]: -40%
- inhibition (INH) [4]: Active

Compound: O=C1S/C(=C\c2ccc3c(cnn3Cc3ccc(Cl)cc3C(F)(F)F)c2)C(=O)N1C1CCNCC1
- inhibition (INH) [11]: Active
- inhibition (INH) [12]: Active
- IC50 [1]: 16 nM
- inhibition (INH) [13]: Active

Compound: O=C1S/C(=C\c2ccc3c(cnn3Cc3ccc(Cl)cc3C(F)(F)F)c2)C(=O)N1CCN1CCCC1
- IC50 [1]: 17 nM
- Activity [2]: -49%
- Activity [3]: -30%
- inhibition (INH) [4]: Active
- Cp [5]: < 100 ng/mL

Compound: COc1ccc(Cn2ncc3cc(/C=C4\SC(=O)N(C5CCC(C(=O)O)CC5)C4=O)ccc32)c(C(F)(F)F)c1 (configuration not stated)
- Activity [2]: -11%
- Activity [3]: 32%

Compound: CN1CCC(N2C(=O)S/C(=C\c3ccc4c(cnn4Cc4ccc(Cl)cc4C(F)(F)F)c3)C2=O)CC1
- inhibition (INH) [12]: Active
- IC50 [1]: 19 nM

Compound: COc1ccc(Cn2ncc3cc(/C=C4\SC(=O)N(CCN5CCOCC5)C4=O)ccc32)c(C(F)(F)F)c1
- IC50 [1]: 8 nM
- Activity [2]: -21%
- Activity [3]: -19%

Compound: O=C1S/C(=C\c2ccc3c(cnn3Cc3ccc(Cl)cc3C(F)(F)F)c2)C(=O)N1C[C@H]1COCCN1
- IC50 [1]: 15 nM
- Activity [2]: -52%
- Activity [3]: -61%
- inhibition (INH) [4]: Active
- Cp [5]: < 100 ng/mL

Compound: NS(=O)(=O)NC(=O)CN1C(=O)S/C(=C\c2ccc3c(cnn3Cc3ccc(Cl)cc3C(F)(F)F)c2)C1=O
- IC50 [1]: 19 nM
- Activity [2]: -51%
- Activity [3]: -14%

Compound: O=C1S/C(=C\c2ccc3c(cnn3Cc3ccc(Cl)cc3C(F)(F)F)c2)C(=O)N1[C@@H]1CCNC[C@H]1F (relative stereo)
- IC50 [1]: 34 nM
- IC50 [4]: 21000 nM

Compound: CCC(=C(c1ccc(O)cc1)c1ccc(OCCN(C)C)cc1)c1ccccc1
- IC50 [14]: 886 nM

Compound: CN1CC[C@H](N2C(=O)S/C(=C\c3ccc4c(cnn4Cc4ccc(Cl)cc4C(F)(F)F)c3)C2=O)[C@H](F)C1 (relative stereo)
- inhibition (INH) [11]: Not Active
- inhibition (INH) [12]: Not Active
- IC50 [1]: 45 nM
- Activity [2]: -73%
- Activity [3]: -57%
- inhibition (INH) [4]: Not Active
- inhibition (INH) [13]: Not Active
- Activity [6]: -43%
- Activity [15]: -35%
- Activity [16]: Non-Toxic

Compound: CC(=O)NS(=O)(=O)CN1C(=O)S/C(=C\c2ccc3c(cnn3Cc3ccc(Cl)cc3C(F)(F)F)c2)C1=O
- IC50 [1]: 8 nM
- Activity [2]: -58%
- Activity [3]: -37%

Compound: O=C(O)CN1C(=O)S/C(=C\c2ccc3c(cnn3Cc3ccc(C(F)(F)F)cc3C(F)(F)F)c2)C1=O
- IC50 [1]: 26 nM

Compound: CS(=O)(=O)NC(=O)CN1C(=O)S/C(=C\c2ccc3c(cnn3Cc3ccc(Cl)cc3C(F)(F)F)c2)C1=O
- IC50 [1]: 18 nM
- Activity [2]: -14%
- Activity [3]: 13%

Compound: CN1CCC[C@H]1CN1C(=O)S/C(=C\c2ccc3c(cnn3Cc3ccc(Cl)cc3C(F)(F)F)c2)C1=O
- IC50 [1]: 5 nM
- Activity [2]: -59%
- Activity [3]: -37%
- Cp [5]: < 100 ng/mL
